Measurements as given in publication PMC8244813 (Nutrition and cancer, 2019).
Read-outs that look alike come from different tables or passages of the source.

How the values were obtained:
[1] = test system: AMACR mRNA in LNCaP cells; details: 6 and 24 h after a single SFN treatment; cited from earlier work
[2] = test system: AMACR expression in colon cancer Caco-2 cells; details: SFN treatment; cited from earlier work
[3] = SFN metabolites in plasma by LC-MS/MS; details: BSE group n=42; for Plasma level of individual SFN metabolite, postintervention, Mean (SE): after 200 μmol SFN daily, 4–8 wk; for Plasma level of individual SFN metabolite, preintervention, Mean (SE): baseline before supplementation
[4] = in vivo

Compound | Plasma level of individual SFN metabolite, change (post minus pre), Mean (SE) [3] | Plasma level of individual SFN metabolite, postintervention, Mean (SE) [3] | Plasma level of individual SFN metabolite, preintervention, Mean (SE) [3] | Plasma level of individual SFN metabolite, change (post minus pre), Mean (SE) [4] | Plasma level of individual SFN metabolite, preintervention, Mean (SE) [4] | AMACR mRNA levels in LNCaP cells [1] | AMACR expression in colon cancer Caco-2 cells [2]
C[S+]([O-])CCCCN=C=S (stereo not shown) [SFN, sulforaphane] | 0.0001 (0.0001) μM | 0.0001 (0.0001) μM | 0.00 (0.00) μM | – | – | significantly downregulated | significantly decrease AMACR expression
C[S+]([O-])CCCCNC(=S)SCC(N)C(=O)NCC(=O)O (stereo not shown) [SFN-CG, SFN-cysteinylglycine] | – | – | – | 0.04 (0.01) μM | 0.00 (0.00) μM | – | –

Second part, led by results:

Plasma level of individual SFN metabolite, change (post minus pre), Mean (SE) [3] | Plasma level of individual SFN metabolite, postintervention, Mean (SE) [3] | Plasma level of individual SFN metabolite, preintervention, Mean (SE) [3] | Plasma level of individual SFN metabolite, change (post minus pre), Mean (SE) [4] | Plasma level of individual SFN metabolite, preintervention, Mean (SE) [4] | Compound | AMACR mRNA levels in LNCaP cells [1] | AMACR expression in colon cancer Caco-2 cells [2]
0.02 (0.01) μM | 0.02 (0.01) μM | 0.00 (0.00) μM | – | – | C[S+]([O-])CCCCNC(=S)SCC(N)C(=O)O (stereo not shown) [SFN-Cys, SFN-cysteine] | – | –
0.03 (0.01) μM | 0.03 (0.01) μM | 0.00 (0.00) μM | – | – | C[S+]([O-])CCCCNC(=S)SC[C@H](NC(=O)CC[C@H](N)C(=O)O)C(=O)NCC(=O)O (stereo partly shown) [SFN-GSH, SFN-glutathione] | – | –
0.03 (0.01) μM | 0.03 (0.01) μM | 0.00 (0.00) μM | – | – | CC(=O)N[C@@H](CSC(=S)NCCCC[S+](C)[O-])C(=O)O (stereo partly drawn) [SFN-NAC, SFN N-acetyl-L-cysteine] | – | –
